The target in this assay is T1, SpIH (Strongylocentrotus purpuratus, UniProt O76977).
T1 sequence (O76977 1-767): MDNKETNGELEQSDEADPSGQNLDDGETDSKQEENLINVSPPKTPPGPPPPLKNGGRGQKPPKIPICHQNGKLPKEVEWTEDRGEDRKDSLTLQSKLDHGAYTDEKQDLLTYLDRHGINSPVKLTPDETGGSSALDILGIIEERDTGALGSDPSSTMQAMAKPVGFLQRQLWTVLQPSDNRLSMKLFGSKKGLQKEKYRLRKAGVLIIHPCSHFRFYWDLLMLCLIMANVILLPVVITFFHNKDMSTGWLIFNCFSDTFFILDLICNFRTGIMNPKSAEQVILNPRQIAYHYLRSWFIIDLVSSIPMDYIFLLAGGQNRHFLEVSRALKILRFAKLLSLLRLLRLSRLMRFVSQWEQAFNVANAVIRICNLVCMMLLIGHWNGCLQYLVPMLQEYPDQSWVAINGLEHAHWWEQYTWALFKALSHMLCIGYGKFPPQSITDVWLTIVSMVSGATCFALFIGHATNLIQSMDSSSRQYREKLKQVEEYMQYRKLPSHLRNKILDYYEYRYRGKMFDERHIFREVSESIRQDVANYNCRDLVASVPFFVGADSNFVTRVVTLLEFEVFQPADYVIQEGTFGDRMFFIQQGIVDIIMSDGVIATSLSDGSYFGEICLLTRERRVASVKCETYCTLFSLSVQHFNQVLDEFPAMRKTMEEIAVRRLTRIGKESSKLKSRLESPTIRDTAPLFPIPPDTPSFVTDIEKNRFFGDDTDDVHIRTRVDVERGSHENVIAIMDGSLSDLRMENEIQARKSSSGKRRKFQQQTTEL
Type of assay: cell-based.

Broadly, the IC50 is the concentration needed to halve the response being measured. High values mean lower potency, low ones higher potency. The molecule `CCCCCCCC(=O)OC[C@H](COP(=O)(O)O[C@H]1[C@H](O)[C@@H](O)[C@H](OP(=O)(O)O)[C@@H](O)[C@H]1O)OC(=O)CCCCCCC` [diC8-PIP] came in with an IC50 of 13.6 µM.

The values are drawn from PMC3083228 (The Journal of Biological Chemistry, 2011).
